Data on one compound can be found in patent US7575764B2, “Compositions comprising hypsizygus ulmarius extract” (ELC Management LLC, priority 2005, dated 2009).

In experiment [1] the test system is IL-1β mediated adhesion of neutrophils. Description: Inhibition of IL-1β mediated adhesion of neutrophils (PMN) to human dermal microvascular endothelial cells. The format is cell-based. The protocol:
Three samples identical to those in example 4 were tested for their ability to inhibit endothelial adhesion of neutrophils by interfering with the effects of IL-1β. These samples were tested at final concentrations of 0.1% and 1% (w/v). Neutrophil adhesion was inhibited dose dependently with all samples tested. Adhesion of PMN to human dermal microvascular cells is a required step in the recruitment of leukocytes into the site of infection or irritation and was modeled for this assay in the following manner. […] The PMN rich fraction was removed and RBC were lysed with hypotonic saline. The PMN were washed twice with Hank's balanced salt solution (HBSS) and then resuspended in 5.0 ml HBSS with ions supplemented with 0.4% bovine serum albumin (Sigma). The concentration of cells was adjusted to 10×106 PMN/ml. Collected PMNs were greater than 95% pure and 98% viable as assessed by the trypan blue exclusion assay. […] In preliminary experiments the optimum concentrations of stimulatory agents (IL-1β, 10 U/ml and TPA, 5 ng/ml) were determined. […] After 30-45 min, the wells were read in an ELISA reader (Bio-Tek Instruments Inc, Winooslei, Vt., USA) at 570 nm. The level of adherence was given as the mean optical density (OD) reading at an OD570 for wells containing endothelial cells plus PMN minus the mean OD570 of wells containing endothelial cells alone.

In experiment [2] the test system is LTB4-mediated neutrophil chemotaxis. Description: Inhibition of neutrophil (PMN) chemotaxis toward LTB4, Boyden chamber. The class given is cell-based, human. As to the method: Three test samples, identical to powder samples 1, 2 and 3 in Example 1, were assayed for their ability to inhibit neutrophil chemotaxis toward Leukotriene B4. The assay is designed to assess the ability of a material to inhibit the migration of polymorphonuclear leukocytes (PMN) toward a known chemotactic agent, LTB4. […] The PMN rich fraction was removed and red blood cells (RBC) were lysed with hypotonic saline. The PMN were washed twice with Hank's Balanced Salt Solution (HBSS) and then resuspended in 5.0 ml HBSS with ions supplemented with 0.4% bovine serum albumin (Sigma). The concentration of cells was adjusted to 10×106 PMN/ml. Collected PMNs were greater than 95% pure and 98% viable as assessed by the trypan blue exclusion assay. The assay was performed using the Boyden chamber apparatus with blind well chambers fitted with 5 μm pore size filters (Millipore). The apparatus consists of two vertical chambers separated by a filter that contains pores of a size chosen such that the holes are large enough for the cells to actively crawl through them but not so large that the cells can physically fall through into the lower chamber. […] The chemoattractant used in the present experiment was 0.125 nM LTB4. Following incubation at 37° C. for 90 min., under a humidified atmosphere with 5% CO2, the filters were fixed with propanol and stained with haematoxylin and eosin. The PMN chemotactic response was determined by the distance to the leading front and the number of cells that migrated to the front. The distance to the leading front was determined at 400× magnification by the distance the majority of the cells migrated through the filter. The results were expressed as the average number of cells per high powered field at the leading (migratory) front (PMN/HPF). In this assay, 0.5% caffeine was used as a positive control. A negative control, with no anti-chemotactic agent, was also used. The results, shown in Table 4, are the percent reduction in chemotactic activity compared to the negative control.

Turning to `Cn1c(=O)c2c(ncn2C)n(C)c1=O` [caffeine], the “Percent reduction in adhesion activity compared to negative control” value in experiment [1] (Example 5, 1.0% (w/v), IL-1β 10 U/ml) is listed as 64%; in experiment [1] (Example 8, positive control at 1.0% concentration), 47%. In addition, in experiment [2] (Example 2, 0.5% (w/v), 0.125 nM LTB4), the “Percent reduction in chemotactic activity compared to the negative control” value came out at 96%. Also, the “Percent reduction in chemotactic activity compared to negative control” value amounted to 93% in experiment [2] (Example 4, 0.1% (w/v), 0.125 nM LTB4); 94% in experiment [2] (Example 6, concentration 0.5%); 97% in experiment [2] (Example 7, positive control at 0.5% concentration).
